Test results from publication PMC9137037 (Frontiers in Oncology, 2022).
Where no end group is shown, it is not given here.

How the values were obtained:
cynomolgus monkeys = assay: ELISA antibody titers, monkey study No.00213515; type: in vivo, Macaca fascicularis; details: monkey 1st set, 0.5, 2, 5 mg/dose, 2-week interval, ISA 720
Protocol: The non-human primate studies were carried out by the Charles River Laboratories (Ashland, OH USA). All the cynomolgus monkeys (Macaca fascicularis of Chinese origin) were obtained from Charles River Laboratories (Houston, TX, USA). In brief, the animals were approximately 2–4 years old and at the body weight between 2.2 and 3.1 kg at the initial dosing. The animals were kept at the temperature between 19°C and 24°C, humidity 30%–70%, and with 12 h light and 12 h dark light cycle. The Good manufacturing practice (GMP)-manufactured vaccine was used in the non-human primate study. […] Similar to mouse and dog dosing preparation, after the emulsion was prepared, a drop test was performed on each time of dosing to confirm that the emulsion had been prepared properly. […] All the animals’ body weights were monitored weekly after receiving. […]
(§1) Enzyme-linked immunosorbent assay (ELISA) was performed per our lab standard procedure. […] After washing, the antibody was detected using 50 μl of 0.15% H2O2 in 24 mM of citric acid and 5 mM of the sodium phosphate buffer (pH5.2) with 0.5 mg/ml 2, […] (3-ethylbenzthiazole- 6-sulfonic acid, ABTS; Sigma, St. Louis, MO, USA) as the chromophore. […] Absorbance was read at 415 nm using an ELISA microplate reader (SPECTRAmax PLUS384; Molecular Devices, San Jose, CA, USA). The highest dilution at the cutoff absorbance 0.2 were determined as the antibody titer. […]

BALB/c mice [1] = assay: Observation for autoimmune symptoms in immunized mice; type: in vivo, mouse
Source text: The common autoimmune symptoms are identified as follows: skin rashes, low-grade fever, achy muscles, fatigue, hair loss, trouble concentrating, and so on. […] For the dogs, the high volume of ISA 720 caused a lesion near the injection site that might result in mild swelling, but the symptoms were resolved weeks after. The immunized monkeys had some swelling at or near the site of IM injection, especially after the second or third dose and more frequent in females than males. In all the clinical observations, these animals either had recovered or were in the process of recovering. Despite these adverse clinical findings, all of them were active and in good condition throughout the project. Overall, there were no observable signs or uncontrolled autoimmune symptoms.

BALB/c mice [2] = assay: ELISA antibody titers in sera of immunized BALB/c mice; type: in vivo; details: mouse; Figure 1C
Protocol: The peptide vaccine MVF-PD-1(92-110) was dissolved in sterile water and mixed with either ISA 720 or ISA 51 (1:1) ratio. We utilized the well-established murine colon carcinoma cell line CT26 tumor model in syngeneic BALB/c mice to evaluate the effects of vaccination previously described ([23]). Briefly, 6–8-week-old female BALB/c mice were immunized with the peptide vaccine, and 2 weeks after the third immunization, the mice were challenged with 1×10^5 CT26 colon cancer cells by subcutaneous injection (SC). The CT26 cancer cell line was maintained in the DMEM medium with 10% FBS 5% CO2 at 37 °C. […] Tumor growth was monitored daily, especially 7 days after the tumor challenge. […]
as §1

KLLSLIKGVIVHRLEGVEGPSLGAISLAPKAQIKESLRAEL [MVF-PD-1(92-110)]
immunogenicity (summary) (cynomolgus monkeys): high immunogenicity
induction of autoimmune responses (BALB/c mice [1]): has not been observed
immunogenicity (summary) (BALB/c mice [2]): High immunogenicity ( Figure 1C );
